In brackets after ≈: the same amount, converted by molar mass.
The compounds below were run on ATCC9027 strain (Pseudomonas aeruginosa) (assay: Checkerboard antibacterial synergistic activity test with polymyxin E (FIC)). Settings: combined with polymyxin E.
Assay type: cell-based
Parameters: key: FIC≤0.5 synergy; 0.5–1 additive; 1–2 indifferent; ≥2 antagonism
Summary of the method: (§1)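 Broth checkerboard synergy with colistin; listed dilutions are working solutions, not final well levels. Overnight incubation, 16 h at 37° C.; FIC ≤0.5 denotes synergy, ≥2 antagonism.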
In the case of `CSc1cc2ccccn2c1-c1csc(N=C(N)N)n1` [Compound I-123], the “Synergistic activity (FIC value) ATCC9027” value was 0.06.
With `NC(N)=Nc1nc(-c2cccc3c2C(F)(F)c2cc(Br)ccc2-3)cs1` [Compound I-115] the “Synergistic activity (FIC value) ATCC9027” value was 1.25.
With `COc1cccc(-c2csc(N=C(N)N)n2)c1` [Compound I-5] the “Synergistic activity (FIC value) ATCC9027” value was 1.25.
With `Oc1ccc(-c2ccccn2)c(-c2c[se]c(N=C3NCCCN3)n2)c1` [Compound I-137] the “Synergistic activity (FIC value) ATCC9027” value was 1.25.
With `NC(N)=Nc1nc(-c2cccc(Oc3ccccn3)c2)cs1` [Compound I-104] the “Synergistic activity (FIC value) ATCC9027” value was 0.52.
`CC(C)c1cc(-c2nc(N=C3NCCCN3)sc2Cl)cc(C(C)C)c1O` [Compound I-168] was tested, and the “Synergistic activity (FIC value) ATCC9027” value was 0.63.
In the case of `CSc1cc2cc(Cl)cc(Cl)n2c1-c1nc(N=C(N)N)sc1Cl` [Compound I-130], the “Synergistic activity (FIC value) ATCC9027” value was 0.28.
For `CC(C)(C)c1cccc(-c2c[se]c(N=C(N)N)n2)c1` [Compound I-11], the “Synergistic activity (FIC value) ATCC9027” value was 0.63.

What follows are compounds tested on ATCC19606 strain (Acinetobacter baumannii) in the same assay as above. Settings: combined with polymyxin E.
Assay type: cell-based
Parameters: key: FIC≤0.5 synergy; 0.5–1 additive; 1–2 indifferent; ≥2 antagonism
Summary of the method: as §1
`CSc1cc2ccccn2c1-c1csc(N=C(N)N)n1` [Compound I-123] was tested, and the “Synergistic activity (FIC value) ATCC19606” value was 0.31.
In the case of `NC(N)=Nc1nc(-c2cccc3c2C(F)(F)c2cc(Br)ccc2-3)cs1` [Compound I-115], the “Synergistic activity (FIC value) ATCC19606” value was 1.25.
With `COc1cccc(-c2csc(N=C(N)N)n2)c1` [Compound I-5] the “Synergistic activity (FIC value) ATCC19606” value was 1.25.
In the case of `Oc1ccc(-c2ccccn2)c(-c2c[se]c(N=C3NCCCN3)n2)c1` [Compound I-137], the “Synergistic activity (FIC value) ATCC19606” value was 1.25.
In the case of `NC(N)=Nc1nc(-c2cccc(Oc3ccccn3)c2)cs1` [Compound I-104], the “Synergistic activity (FIC value) ATCC19606” value was 0.25.
With `CC(C)c1cc(-c2nc(N=C3NCCCN3)sc2Cl)cc(C(C)C)c1O` [Compound I-168] the “Synergistic activity (FIC value) ATCC19606” value was 0.28.
In the case of `CSc1cc2cc(Cl)cc(Cl)n2c1-c1nc(N=C(N)N)sc1Cl` [Compound I-130], the “Synergistic activity (FIC value) ATCC19606” value was 0.03.
With `CC(C)(C)c1cccc(-c2c[se]c(N=C(N)N)n2)c1` [Compound I-11] the “Synergistic activity (FIC value) ATCC19606” value was 0.3.

The compounds below were run on ATCC25922 strain (Escherichia coli) in the same assay as above. Settings: combined with polymyxin E.
Assay type: cell-based
Parameters: key: FIC≤0.5 synergy; 0.5–1 additive; 1–2 indifferent; ≥2 antagonism
Summary of the method: as §1
With `CSc1cc2ccccn2c1-c1csc(N=C(N)N)n1` [Compound I-123] the “Synergistic activity (FIC value) ATCC25922” value was 0.14.
For `NC(N)=Nc1nc(-c2cccc3c2C(F)(F)c2cc(Br)ccc2-3)cs1` [Compound I-115], the “Synergistic activity (FIC value) ATCC25922” value was 1.25.
For `COc1cccc(-c2csc(N=C(N)N)n2)c1` [Compound I-5], the “Synergistic activity (FIC value) ATCC25922” value was 1.25.
`Oc1ccc(-c2ccccn2)c(-c2c[se]c(N=C3NCCCN3)n2)c1` [Compound I-137] was tested, and the “Synergistic activity (FIC value) ATCC25922” value was 0.5.
With `NC(N)=Nc1nc(-c2cccc(Oc3ccccn3)c2)cs1` [Compound I-104] the “Synergistic activity (FIC value) ATCC25922” value was 1.25.
`CC(C)c1cc(-c2nc(N=C3NCCCN3)sc2Cl)cc(C(C)C)c1O` [Compound I-168] was tested, and the “Synergistic activity (FIC value) ATCC25922” value was 0.5.
`CSc1cc2cc(Cl)cc(Cl)n2c1-c1nc(N=C(N)N)sc1Cl` [Compound I-130] was tested, and the “Synergistic activity (FIC value) ATCC25922” value was 0.18.
For `CC(C)(C)c1cccc(-c2c[se]c(N=C(N)N)n2)c1` [Compound I-11], the “Synergistic activity (FIC value) ATCC25922” value was 0.5.

These compounds were tested on ATCC13883 strain (Klebsiella pneumoniae) in the same assay as above. Settings: combined with polymyxin E.
Assay type: cell-based
Parameters: key: FIC≤0.5 synergy; 0.5–1 additive; 1–2 indifferent; ≥2 antagonism
Summary of the method: as §1
With `CSc1cc2ccccn2c1-c1csc(N=C(N)N)n1` [Compound I-123] the “Synergistic activity (FIC value) ATCC13883” value was 0.09.
`NC(N)=Nc1nc(-c2cccc3c2C(F)(F)c2cc(Br)ccc2-3)cs1` [Compound I-115] was tested, and the “Synergistic activity (FIC value) ATCC13883” value was 1.25.
`COc1cccc(-c2csc(N=C(N)N)n2)c1` [Compound I-5] was tested, and the “Synergistic activity (FIC value) ATCC13883” value was 1.25.
`Oc1ccc(-c2ccccn2)c(-c2c[se]c(N=C3NCCCN3)n2)c1` [Compound I-137] was tested, and the “Synergistic activity (FIC value) ATCC13883” value was 1.25.
With `NC(N)=Nc1nc(-c2cccc(Oc3ccccn3)c2)cs1` [Compound I-104] the “Synergistic activity (FIC value) ATCC13883” value was 1.25.
For `CC(C)c1cc(-c2nc(N=C3NCCCN3)sc2Cl)cc(C(C)C)c1O` [Compound I-168], the “Synergistic activity (FIC value) ATCC13883” value was 0.25.
`CSc1cc2cc(Cl)cc(Cl)n2c1-c1nc(N=C(N)N)sc1Cl` [Compound I-130] was tested, and the “Synergistic activity (FIC value) ATCC13883” value was 0.16.
`CC(C)(C)c1cccc(-c2c[se]c(N=C(N)N)n2)c1` [Compound I-11] was tested, and the “Synergistic activity (FIC value) ATCC13883” value was 0.25.

These compounds were tested on ATCC9027 strain (Pseudomonas aeruginosa) (assay: Broth microdilution, antibacterial activity of the compound used alone). Settings: not given.
Assay type: cell-based
Description: (§2) The broth microdilution method was used to test the antibacterial effects of the compounds of the present invention against various Gram-negative bacterial strains when used alone.
In the case of `COc1cccc(-c2csc(N=C(N)N)n2)c1` [Compound I-5], the “Antibacterial activity of the compound of Formula I, ATCC9027” value (“Antibacterial activity … ATCC9027” for short) was 256 µg/mL.
`Oc1ccc(-c2ccccn2)c(-c2c[se]c(N=C3NCCCN3)n2)c1` [Compound I-137] was tested, and the “Antibacterial activity … ATCC9027” value was 128 µg/mL.
With `CC(C)c1cc(-c2nc(N=C3NCCCN3)sc2Cl)cc(C(C)C)c1O` [Compound I-168] the “Antibacterial activity … ATCC9027” value was 256 µg/mL.
With `CSc1cc2cc(Cl)cc(Cl)n2c1-c1nc(N=C(N)N)sc1Cl` [Compound I-130] the “Antibacterial activity … ATCC9027” value was 256 µg/mL.
With `CC(C)(C)c1cccc(-c2c[se]c(N=C(N)N)n2)c1` [Compound I-11] the “Antibacterial activity … ATCC9027” value was 256 µg/mL.

Same assay, conditions: read-out: Antibacterial activity of the compound of Formula I, ATCC9027
In the case of `CSc1cc2ccccn2c1-c1csc(N=C(N)N)n1` [Compound I-123], the MIC was 256 mg/L (≈ 844 µM).
Compound `NC(N)=Nc1nc(-c2cccc3c2C(F)(F)c2cc(Br)ccc2-3)cs1` [Compound I-115] has an MIC of 256 mg/L (≈ 608 µM).
`NC(N)=Nc1nc(-c2cccc(Oc3ccccn3)c2)cs1` [Compound I-104] was tested, and the MIC was 256 mg/L (≈ 822 µM).

What follows are compounds tested on ATCC19606 strain (Acinetobacter baumannii) in the same assay as above. Settings: not given.
Assay type: cell-based
Description: as §2
With `COc1cccc(-c2csc(N=C(N)N)n2)c1` [Compound I-5] the “Antibacterial activity of the compound of Formula I, ATCC19606” value (“Antibacterial activity … ATCC19606” below) was 256 µg/mL.
With `Oc1ccc(-c2ccccn2)c(-c2c[se]c(N=C3NCCCN3)n2)c1` [Compound I-137] the “Antibacterial activity … ATCC19606” value was 256 µg/mL.
With `CC(C)c1cc(-c2nc(N=C3NCCCN3)sc2Cl)cc(C(C)C)c1O` [Compound I-168] the “Antibacterial activity … ATCC19606” value was 256 µg/mL.
`CSc1cc2cc(Cl)cc(Cl)n2c1-c1nc(N=C(N)N)sc1Cl` [Compound I-130] was tested, and the “Antibacterial activity … ATCC19606” value was 256 µg/mL.
In the case of `CC(C)(C)c1cccc(-c2c[se]c(N=C(N)N)n2)c1` [Compound I-11], the “Antibacterial activity … ATCC19606” value was 256 µg/mL.

Same assay, conditions: read-out: Antibacterial activity of the compound of Formula I, ATCC19606
Work on `CSc1cc2ccccn2c1-c1csc(N=C(N)N)n1` [Compound I-123] yielded an MIC of 256 mg/L (≈ 844 µM).
`NC(N)=Nc1nc(-c2cccc3c2C(F)(F)c2cc(Br)ccc2-3)cs1` [Compound I-115] was tested, and the MIC was 256 mg/L (≈ 608 µM).
`NC(N)=Nc1nc(-c2cccc(Oc3ccccn3)c2)cs1` [Compound I-104] was tested, and the MIC was 256 mg/L (≈ 822 µM).

What follows are compounds tested on ATCC25922 strain (Escherichia coli) in the same assay as above. Settings: not given.
Assay type: cell-based
Description: as §2
In the case of `COc1cccc(-c2csc(N=C(N)N)n2)c1` [Compound I-5], the “Antibacterial activity of the compound of Formula I, ATCC25922” value (“Antibacterial activity … ATCC25922” below) was 256 µg/mL.
In the case of `Oc1ccc(-c2ccccn2)c(-c2c[se]c(N=C3NCCCN3)n2)c1` [Compound I-137], the “Antibacterial activity … ATCC25922” value was 128 µg/mL.
In the case of `CC(C)c1cc(-c2nc(N=C3NCCCN3)sc2Cl)cc(C(C)C)c1O` [Compound I-168], the “Antibacterial activity … ATCC25922” value was 256 µg/mL.
For `CSc1cc2cc(Cl)cc(Cl)n2c1-c1nc(N=C(N)N)sc1Cl` [Compound I-130], the “Antibacterial activity … ATCC25922” value was 256 µg/mL.
In the case of `CC(C)(C)c1cccc(-c2c[se]c(N=C(N)N)n2)c1` [Compound I-11], the “Antibacterial activity … ATCC25922” value was 256 µg/mL.

Same assay, conditions: read-out: Antibacterial activity of the compound of Formula I, ATCC25922
Work on `CSc1cc2ccccn2c1-c1csc(N=C(N)N)n1` [Compound I-123] yielded an MIC of 256 mg/L (≈ 844 µM).
`NC(N)=Nc1nc(-c2cccc3c2C(F)(F)c2cc(Br)ccc2-3)cs1` [Compound I-115] showed an MIC of 256 mg/L (≈ 608 µM).
With `NC(N)=Nc1nc(-c2cccc(Oc3ccccn3)c2)cs1` [Compound I-104] the MIC was 256 mg/L (≈ 822 µM).

Each compound was assayed on ATCC13883 strain (Klebsiella pneumoniae) in the same assay as above. Settings: not given.
Assay type: cell-based
Description: as §2
In the case of `COc1cccc(-c2csc(N=C(N)N)n2)c1` [Compound I-5], the “Antibacterial activity of the compound of Formula I, ATCC13883” value (“Antibacterial activity … ATCC13883” below) was 256 µg/mL.
For `Oc1ccc(-c2ccccn2)c(-c2c[se]c(N=C3NCCCN3)n2)c1` [Compound I-137], the “Antibacterial activity … ATCC13883” value was 128 µg/mL.
In the case of `CC(C)c1cc(-c2nc(N=C3NCCCN3)sc2Cl)cc(C(C)C)c1O` [Compound I-168], the “Antibacterial activity … ATCC13883” value was 256 µg/mL.
For `CSc1cc2cc(Cl)cc(Cl)n2c1-c1nc(N=C(N)N)sc1Cl` [Compound I-130], the “Antibacterial activity … ATCC13883” value was 256 µg/mL.
In the case of `CC(C)(C)c1cccc(-c2c[se]c(N=C(N)N)n2)c1` [Compound I-11], the “Antibacterial activity … ATCC13883” value was 256 µg/mL.

Same assay, conditions: read-out: Antibacterial activity of the compound of Formula I, ATCC13883
With `CSc1cc2ccccn2c1-c1csc(N=C(N)N)n1` [Compound I-123] the MIC was 256 mg/L (≈ 844 µM).
For `NC(N)=Nc1nc(-c2cccc3c2C(F)(F)c2cc(Br)ccc2-3)cs1` [Compound I-115], the MIC was 256 mg/L (≈ 608 µM).
`NC(N)=Nc1nc(-c2cccc(Oc3ccccn3)c2)cs1` [Compound I-104] gave an MIC of 256 mg/L (≈ 822 µM).
